ChEMBL document CHEMBL1201862, “PubChem BioAssay data set” (2004)
Calls of active or inactive are those of the source.

Assays:
INS1 = experiment: INS-1E survival protection against cytokine death – cell-based, luminescence, retest, dose response (AID 449756); format: functional; settings: Rattus norvegicus;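 note: cell death triggered by IL-1 beta plus TNF-alpha plus IFN-gamma mixture; protective hits raise ATP signal compared with cytokine alone wells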
[1] = target: T1, Rac GTPase-activating protein 1 (Homo sapiens, UniProt Q9H0H5); experiment: blockers of MgcRacGAP-driven Rac1 GTP hydrolysis – biochemical, ADP Hunter fluorescence, primary and confirmatory, confirmation (AID 624330); format: functional
T1 sequence (Q9H0H5 whole entry): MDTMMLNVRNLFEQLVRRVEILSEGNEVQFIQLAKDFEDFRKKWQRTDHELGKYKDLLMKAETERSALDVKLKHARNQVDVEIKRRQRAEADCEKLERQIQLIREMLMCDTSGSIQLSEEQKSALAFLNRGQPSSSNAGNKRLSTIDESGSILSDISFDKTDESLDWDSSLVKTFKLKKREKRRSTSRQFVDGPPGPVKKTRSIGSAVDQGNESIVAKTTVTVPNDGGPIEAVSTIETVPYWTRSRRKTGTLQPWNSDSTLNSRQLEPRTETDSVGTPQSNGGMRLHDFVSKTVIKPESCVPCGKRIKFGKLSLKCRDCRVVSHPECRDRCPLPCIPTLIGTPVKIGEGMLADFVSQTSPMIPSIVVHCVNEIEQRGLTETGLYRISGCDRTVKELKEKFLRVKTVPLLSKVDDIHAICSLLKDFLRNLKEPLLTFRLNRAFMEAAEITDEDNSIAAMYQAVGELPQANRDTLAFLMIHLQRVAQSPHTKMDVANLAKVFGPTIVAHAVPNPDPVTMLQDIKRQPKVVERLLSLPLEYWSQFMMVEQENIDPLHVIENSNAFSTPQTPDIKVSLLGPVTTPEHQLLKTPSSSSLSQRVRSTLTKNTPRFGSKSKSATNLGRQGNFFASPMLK

[2] = Luminescence Cell-Based Dose Retest to Confirm Inhibitors of Cancer Stem Cells. [Related pubchem assays (depositor defined):AID2717, AID2721]; format: functional; settings: Homo sapiens
Paired box protein Pax-8 = Paired box protein Pax-8 (Homo sapiens, UniProt Q06710); experiment: PAX8 transcriptional activity inhibition in RMG-I – RMG-I cells, luciferase, cherry-pick, dose response (AID 687027); format: functional, cell-based;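 note: luciferase reporter driven by Pax8 target thyroperoxidase promoter measured by SteadyGlo luminescence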
Paired box protein Pax-8, sequence (Q06710 whole entry): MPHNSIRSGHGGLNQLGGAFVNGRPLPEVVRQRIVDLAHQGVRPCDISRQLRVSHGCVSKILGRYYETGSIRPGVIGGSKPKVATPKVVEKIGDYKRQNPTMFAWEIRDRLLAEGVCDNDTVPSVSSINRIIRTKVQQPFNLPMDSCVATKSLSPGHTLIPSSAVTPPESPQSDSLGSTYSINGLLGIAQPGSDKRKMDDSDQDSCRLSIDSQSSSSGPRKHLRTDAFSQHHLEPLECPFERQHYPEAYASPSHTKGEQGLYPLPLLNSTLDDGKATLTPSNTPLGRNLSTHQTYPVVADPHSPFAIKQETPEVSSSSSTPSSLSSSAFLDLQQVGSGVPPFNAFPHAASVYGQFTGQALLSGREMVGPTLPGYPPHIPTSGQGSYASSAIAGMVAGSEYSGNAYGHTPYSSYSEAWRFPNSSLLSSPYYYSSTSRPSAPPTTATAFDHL

Streptococcus = experiment: GAS UMAA2166 growth inhibition – luminescence, BacTiterGlo, counter-screen for streptokinase expression inhibitor project, dose response (AID 1915); format: functional, organism-based;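 note: potency for reduction of bacterial viability or growth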
Streptokinase A = target: T2, Streptokinase A (Streptococcus pyogenes serotype M1, UniProt P10520); experiment: viability-normalized secreted streptokinase activity reduction – plasminogen activation absorbance, OD405, dose response (AID 1914); format: functional, Streptococcus pyogenes M1 GAS;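 note: secreted streptokinase activity via plasminogen activation per viability signal from cell pellet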
T2 sequence (P10520 whole entry): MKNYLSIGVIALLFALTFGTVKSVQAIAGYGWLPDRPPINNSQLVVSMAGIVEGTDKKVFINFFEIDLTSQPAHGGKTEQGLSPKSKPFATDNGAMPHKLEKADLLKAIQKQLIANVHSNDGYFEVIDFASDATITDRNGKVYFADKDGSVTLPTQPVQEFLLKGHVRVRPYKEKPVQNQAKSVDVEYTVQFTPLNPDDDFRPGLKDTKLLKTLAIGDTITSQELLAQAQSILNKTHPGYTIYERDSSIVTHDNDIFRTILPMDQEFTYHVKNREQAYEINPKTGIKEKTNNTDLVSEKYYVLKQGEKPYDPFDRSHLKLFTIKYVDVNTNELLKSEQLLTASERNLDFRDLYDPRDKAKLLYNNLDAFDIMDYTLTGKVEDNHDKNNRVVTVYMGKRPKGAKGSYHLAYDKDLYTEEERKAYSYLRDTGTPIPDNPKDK

[3] = system: Streptococcus sp. 'group A'; experiment: Streptococcus pyogenes SK(-)GAS viability under kanamycin – luminescence, BacTiterGlo, confirmation, counter-screen for streptokinase expression inhibitor project, dose response (AID 1900); format: functional, organism-based
[4] = Luminescence Cell-Based Dose Response HTS to Identify Inhibitors of 5'UTR Stem-Loop Driven Prion Protein mRNA Translation in H4 Neuroglioblastoma Cells. [Related pubchem assays: 1827 (Project Summary), 1813 (Primary HTS)]; format: functional
[5] = alpha-synuclein stem-loop luciferase translation blockers – H4 neuroglioma cells, luminescence, confirmation (AID 1988); format: functional, cell-based
[6] = luciferase reporter signal suppression in cells – H4 neuroglioma cells, luminescence, dose response (AID 1990); format: functional, cell-based
Cytochrome P450 2C9 = Cytochrome P450 2C9 (Homo sapiens, UniProt P11712)
Cytochrome P450 2C9, sequence (P11712 whole entry): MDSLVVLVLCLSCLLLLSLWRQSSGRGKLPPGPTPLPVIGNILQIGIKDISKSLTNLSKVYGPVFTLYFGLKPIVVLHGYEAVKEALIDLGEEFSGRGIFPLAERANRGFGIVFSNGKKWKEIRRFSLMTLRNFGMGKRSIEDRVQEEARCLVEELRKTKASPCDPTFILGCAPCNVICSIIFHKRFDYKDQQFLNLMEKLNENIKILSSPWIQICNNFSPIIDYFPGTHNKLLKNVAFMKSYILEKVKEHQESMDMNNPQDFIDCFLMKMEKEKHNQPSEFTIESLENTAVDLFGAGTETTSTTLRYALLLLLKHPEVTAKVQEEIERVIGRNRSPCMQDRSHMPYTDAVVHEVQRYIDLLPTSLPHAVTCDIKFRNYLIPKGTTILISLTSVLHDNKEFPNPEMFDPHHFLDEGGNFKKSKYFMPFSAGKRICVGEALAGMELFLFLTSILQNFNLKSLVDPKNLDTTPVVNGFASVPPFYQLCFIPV

Cytochrome P450 2C19 = Cytochrome P450 2C19 (Homo sapiens, UniProt P33261); experiment: Cytochrome panel assay with activity outcomes. Panel member name: p450-cyp2c19 Compounds with AC50 equal or less than 10 uM are considered active; format: functional
Cytochrome P450 2C19, sequence (P33261 whole entry): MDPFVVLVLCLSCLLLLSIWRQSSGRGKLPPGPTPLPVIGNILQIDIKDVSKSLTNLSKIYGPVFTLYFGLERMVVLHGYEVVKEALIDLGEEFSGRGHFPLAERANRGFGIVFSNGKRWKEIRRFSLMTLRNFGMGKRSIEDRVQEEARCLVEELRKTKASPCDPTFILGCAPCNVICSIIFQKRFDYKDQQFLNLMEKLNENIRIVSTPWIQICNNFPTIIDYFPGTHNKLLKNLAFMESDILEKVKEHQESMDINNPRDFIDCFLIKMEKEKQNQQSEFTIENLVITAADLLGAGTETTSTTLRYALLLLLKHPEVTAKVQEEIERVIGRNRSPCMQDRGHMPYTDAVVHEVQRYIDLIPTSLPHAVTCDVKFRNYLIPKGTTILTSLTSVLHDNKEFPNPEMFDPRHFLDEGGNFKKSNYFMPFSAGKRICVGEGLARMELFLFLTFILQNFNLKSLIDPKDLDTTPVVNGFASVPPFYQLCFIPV

[7] = viability of uninfected HEp-2 cells – cell-based, HTS, cytotoxicity control for RSV inhibitor project, dose response (AID 2410); format: functional; settings: human respiratory syncytial virus
[8] = NIH3T3 cell viability loss – ATP luminescence, mouse fibroblasts, counter-screen, dose response (AID 2010); format: functional, cell-based;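 note: cells exposed to compound for about 90 hours before reading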
[9] = Trypanosoma cruzi growth suppression in host cells – NIH3T3 host cells, beta-gal luminescence, confirmation (AID 2044); format: functional, cell-based;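 note: intracellular parasites grown in NIH/3T3 mouse fibroblasts as host cells; luminescent beta-galactosidase reporter signal from transgenic T. cruzi replicating inside host cells; inhibitors lower the luminescence signal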
[10] = NIH-3T3 fibroblast cytotoxicity, dose response, cytotoxicity control, cell-based, fluorescence, Alamar Blue, secondary assay (AID 2327); format: functional;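 note: NIH-3T3 mouse fibroblasts cultured with fluconazole at 8 µg/mL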
[11] = fluconazole-exposed Candida albicans growth modulators – fluorescence, retest, confirmation (AID 2467); format: functional, cell-based

CN(C)S(=O)(=O)c1cccc(NC2=NN=C(c3ccccc3)CS2)c1
AC50 (INS1): 7.27 µM (active)

COc1ccc(NC(=O)c2cc3ccc(O)cc3o/c2=N\O)cc1
IC50 [1]: 42 µM (active)
AC50 [2]: 5.22 µM (active)

Cn1cnc2cc(NCc3ccccc3O)ccc21
IC50 [1]: 93.9 µM (active)

C[C@@H]1CN([C@H](C)CO)C(=O)c2c(c3ccccc3n2C)-c2ccccc2CO[C@@H]1CN(C)C
AC50 (Paired box protein Pax-8): 66.1 µM (active)

CCS(=O)(=O)N1Cc2ccccc2CC1C(=O)Nc1nnc(SCc2ccc(F)cc2)s1 (stereo unspecified)
EC50 (Streptococcus): 91.2 µM (active)
EC50 (Streptokinase A): > 150 µM (not active)
EC50 [3]: 8.48 µM (active)

C/C(=N\NC(=O)c1ccc(NS(=O)(=O)c2cccs2)cc1)c1ccccn1
AC50 (INS1): 3.08 µM (active)

O=C(NC1CC1)c1ccc(-c2nc3ccccc3s2)s1
EC50 [4]: 7.52 µM (active)
EC50 [5]: 13.6 µM (inconclusive)
EC50 [6]: 4.13 µM (active)

O=c1c2sc3ccccc3c2[nH]c(=S)n1CCN1CCOCC1
IC50 [1]: 91.3 µM (active)

COc1ccc(N2CCCC2)c(NC(=O)COc2ccccc2Cl)c1
EC50 [4]: > 120 µM (not active)
EC50 [5]: 13.1 µM (active)
EC50 [6]: 13.9 µM (active)

O=C(Nc1cc(Br)c(O)c(Br)c1)c1cccc(NC(=O)c2ccco2)c1
IC50 [1]: 95.2 µM (active)

Cc1cccc(NC(=O)c2ccccc2OCC(=O)c2ccc(F)cc2)c1
EC50 [4]: > 120 µM (not active)
EC50 [5]: > 120 µM (not active)
EC50 [6]: > 120 µM (not active)

C[C@@H]1CN([C@@H](C)CO)C(=O)c2cc(NC(=O)NC3CCCCC3)ccc2O[C@@H](C)CCCCO[C@H]1CN(C)Cc1ccc(C(F)(F)F)cc1
AC50 (Paired box protein Pax-8): 11.5 µM (active)

COc1ccc(CCNCCN2CCOCC2)cc1
IC50 [1]: 77.1 µM (active)

COc1cc2cc(-c3ccc(O)cc3O)nc(C)c2cc1OC
IC50 [1]: 29.9 µM (active)

Nc1nc(-c2ccc(NC(=O)c3ccco3)cc2)cs1
EC50 [4]: 11.7 µM (inconclusive)
EC50 [5]: 8.2 µM (inconclusive)

COc1cccc(C(=O)Nc2cccc(OCC(=O)O)c2)c1
EC50 [4]: > 120 µM (not active)
EC50 [5]: 25.9 µM (active)
EC50 [6]: > 120 µM (not active)

Cc1n[nH]c(C)c1CCCOc1ccccc1
EC50 (Streptococcus): > 150 µM (not active)
EC50 (Streptokinase A): > 150 µM (not active)
EC50 [3]: > 150 µM (not active)

Cc1ccc(S(=O)(=O)[N-]C2=C([n+]3ccn(CCC(C)C)c3)C(=O)c3ccccc3C2=O)cc1
AC50 (INS1): 5.8 µM (active)

CCCCCSc1nnc(C)c(O)n1
AC50 (Cytochrome P450 2C9): 8.91 µM (inconclusive)
AC50 (Cytochrome P450 2C19; read-out: AC50): 39.8 µM (inconclusive)

CCC1CSC(Nc2ccc(C(=O)/C=C/c3ccc(Br)cc3)cc2)=N1 (stereo unspecified)
AC50 [2]: 2 µM (active)

COc1cccc(Nc2nc(-c3cccs3)nc3ccccc23)c1
AC50 [2]: 3.42 µM (active)
CC50 [7]: 13.9 µM (active)

CCCCN1C(=O)C(NC(=O)c2cccnc2)(C(F)(F)F)C2=C1CC(C)(C)CC2=O (stereo unspecified)
AC50 (Cytochrome P450 2C9): 35.5 µM (inconclusive)
AC50 (Cytochrome P450 2C19): inconclusive

Cc1c(C(=O)NCc2ccc3c(c2)OCO3)oc2ccc(S(=O)(=O)N3CCCCCC3)cc12
EC50 [8]: > 60 µM (not active)
EC50 [4]: 15 µM (active)
EC50 [9]: 0.775 µM (active)
EC50 [5]: 25.5 µM (active)
EC50 [6]: 14.9 µM (active)

CN(C)N1C(N)=C(C#N)C(c2cccc3ccccc23)C2=C1CC(c1ccccc1)CC2=O (stereo unspecified)
AC50 [2]: 1.15 µM (active)

CCN1CCN(C(=O)c2ccc(CSc3ccc(C)cc3)cc2)CC1
EC50 [10]: > 150 µM (inactive)
AC50 [2]: < 0.16 µM (active)

COC(=O)C1=C(CSc2nc3ccccc3o2)NC(=O)NC1c1cc(C)ccc1C (stereo unspecified)
EC50 [4]: > 120 µM (not active)
EC50 [5]: > 120 µM (not active)
EC50 [6]: > 120 µM (not active)

Cc1cccc(Oc2nc(-c3ccncc3)nc3ccccc23)c1
EC50 (Streptococcus): 12.5 µM (active)
EC50 (Streptokinase A): > 150 µM (not active)
EC50 [3]: 10.9 µM (active)

CCCCN1C(=O)/C(=C/c2ccc(N(C)C)cc2)C(=O)N(Cc2ccco2)C1=O
AC50 (Cytochrome P450 2C9): 35.5 µM (inconclusive)
AC50 (Cytochrome P450 2C19; read-out: AC50): 31.6 µM (inconclusive)

CN(Cc1c(F)cccc1Cl)C(=O)c1cc2ccccc2o1
AC50 (INS1): > 260 µM (inactive)

CN(C)S(=O)(=O)c1ccc(N2C(=O)CC2(/C=C/c2ccccc2)C(=O)NC2CCCC2)cc1 (stereo unspecified)
EC50 [4]: > 120 µM (not active)
EC50 [5]: > 120 µM (not active)
EC50 [6]: > 120 µM (not active)

Oc1nc(CN2CC=C(c3ccccc3)CC2)nc2scc(-c3cccs3)c12
EC50 (Streptococcus): > 150 µM (not active)
EC50 (Streptokinase A): > 150 µM (not active)
EC50 [3]: 12.2 µM (active)

COc1ccccc1N1CCN(S(=O)(=O)CCNC(=O)c2cc(OC)c(OC)c(OC)c2)CC1
EC50 [4]: > 120 µM (not active)
EC50 [5]: 10.6 µM (active)
EC50 [6]: > 120 µM (not active)

COc1ccc(/C=C/c2nc3cc(-c4ccccc4)ccc3o2)cc1O
AC50 [2]: 4.06 µM (active)
CC50 [7]: 36.3 µM (active)

O=c1[nH]c(=O)n(Cc2ccco2)c2c1C(C(F)(F)F)(C(F)(F)F)NC(c1ccc(F)cc1)=N2
AC50 (INS1): 3.11 µM (active)

Cc1ccccc1-[n+]1c(-c2ccccc2)cc(-c2ccccc2)cc1-c1ccccc1.[O-][Cl+3]([O-])([O-])[O-]
AC50 (INS1): 2.26 µM (active)
EC50 [11]: 0.21 µM (active)
EC50 [10]: 36.3 µM (active)

C=CC[n+]1c(/C=C/c2ccc(OC(C)=O)c(OC)c2)ccc2ccccc21
IC50 [1]: 61.2 µM (active)

Nc1nn2c(O)c3c(nc2c1N=Nc1ccc(Cl)cc1)CCCC3
EC50 (Streptococcus): > 150 µM (not active)
EC50 (Streptokinase A): > 150 µM (not active)
EC50 [3]: 6.99 µM (active)

C/C(=N\NC(=S)NCc1ccccc1)c1cccc(Br)c1
EC50 (Streptococcus): > 150 µM (not active)
EC50 (Streptokinase A): > 150 µM (not active)
EC50 [3]: 8.85 µM (active)

CCOc1ccccc1CN1CCC(N2CCOCC2)CC1
IC50 [1]: 83 µM (active)

Cc1cccc(C(=O)NN(C)c2nc(-c3ccccc3)nnc2C(F)(F)F)c1
AC50 (Cytochrome P450 2C9): 0.316 µM (inconclusive)
AC50 (Cytochrome P450 2C19; read-out: AC50): 0.708 µM (inconclusive)

C/C(=C\C(=O)c1ccccc1)Nc1ccc(O)cc1
IC50 [1]: 20.2 µM (active)

C[C@@H]1CN([C@H](C)CO)C(=O)c2cc(NC(=O)Nc3ccc(F)cc3)ccc2O[C@@H](C)CCCCO[C@H]1CN(C)C(=O)Nc1ccc(F)cc1
AC50 (Paired box protein Pax-8): 10.8 µM (active)

Cc1ccc(C2CC(c3cccs3)=NN2C(=O)c2ccc(Br)o2)cc1 (stereo unspecified)
EC50 (Streptococcus): 34.1 µM (active)
EC50 (Streptokinase A): > 150 µM (not active)
EC50 [3]: 3.12 µM (active)

CN(C)CCCN(C(=O)COc1ccc(Cl)cc1)c1nc2cc3c(cc2s1)OCO3
AC50 (INS1): 14.2 µM (active)

CNc1oc(-c2ccc(Cl)cc2)nc1P(=O)(c1ccccc1)c1ccccc1
AC50 [2]: 7.13 µM (active)

CC(Cc1ccccc1)NC(=O)CSc1nc2nc3c(cc2c(=O)n1-c1ccccc1)COC(C)(C)C3 (stereo unspecified)
AC50 (Cytochrome P450 2C9): 15.8 µM (inconclusive)
AC50 (Cytochrome P450 2C19; read-out: AC50): 35.5 µM (inconclusive)

O=C(COCc1cc(-c2ccc3c(c2)OCO3)on1)N1CCN(c2cccc(C(F)(F)F)c2)CC1
AC50 [2]: 1.51 µM (active)
